Reference: article PMC8887546, “Design and Synthesis of Brain Penetrant Glycopeptide Analogues of PACAP With Neuroprotective Potential for Traumatic Brain Injury and Parkinsonism” (Frontiers in drug discovery, 2022)

Key:
Type in all cases: cell-based
human VPAC1 receptor = target: T1, human VPAC1 receptor (Homo sapiens, UniProt P32241); assay: cAMP stimulation in CHO cells expressing VPAC1; conditions: for Emax: CHO, read-out: VPAC1 Emax; for Receptor selectivity ratio VPAC1/PAC1: ratio of cAMP EC50 values; for EC50: read-out: VPAC1 EC50
T1 construct: expressed in transfected cells; host or cells: CHO cells (G418 selection)
T1 sequence (P32241 31-457): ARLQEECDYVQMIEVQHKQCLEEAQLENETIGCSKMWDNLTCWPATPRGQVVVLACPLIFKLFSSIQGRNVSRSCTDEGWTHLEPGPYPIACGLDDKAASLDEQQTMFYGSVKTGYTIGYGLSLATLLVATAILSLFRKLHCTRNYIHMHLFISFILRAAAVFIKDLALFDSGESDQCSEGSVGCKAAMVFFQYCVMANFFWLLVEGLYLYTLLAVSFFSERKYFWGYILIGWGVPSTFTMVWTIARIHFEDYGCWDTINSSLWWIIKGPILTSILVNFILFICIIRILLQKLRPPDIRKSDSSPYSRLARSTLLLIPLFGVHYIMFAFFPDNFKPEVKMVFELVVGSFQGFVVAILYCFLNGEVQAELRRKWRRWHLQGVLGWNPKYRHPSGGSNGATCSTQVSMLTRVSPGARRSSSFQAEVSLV

human VPAC2 receptor = target: T2, human VPAC2 receptor (Homo sapiens, UniProt P41587); assay: cAMP stimulation in CHO cells expressing VPAC2; conditions: for Emax: CHO; for Receptor selectivity ratio VPAC2/PAC1 / Receptor selectivity ratio VPAC2/VPAC1: ratio of cAMP EC50 values
T2 construct: expressed in transfected cells; host or cells: CHO cells (G418 selection)
T2 sequence (P41587 24-438): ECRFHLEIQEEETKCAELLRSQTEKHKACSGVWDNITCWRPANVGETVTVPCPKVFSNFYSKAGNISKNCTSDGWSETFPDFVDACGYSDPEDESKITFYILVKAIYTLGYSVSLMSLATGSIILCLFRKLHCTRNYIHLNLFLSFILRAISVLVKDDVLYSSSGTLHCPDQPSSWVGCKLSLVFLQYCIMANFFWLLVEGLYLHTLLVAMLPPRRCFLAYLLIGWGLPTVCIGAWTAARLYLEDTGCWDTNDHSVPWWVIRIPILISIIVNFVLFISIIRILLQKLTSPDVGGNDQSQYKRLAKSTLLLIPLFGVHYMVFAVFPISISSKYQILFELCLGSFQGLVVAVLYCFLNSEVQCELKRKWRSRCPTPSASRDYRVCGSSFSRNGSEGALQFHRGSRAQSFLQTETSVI
Description: Briefly, human PAC1, VPAC1, and VPAC2 receptors expressed in CHO cells were used for all experiments. Cells were grown in 50:50 DMEM-F12 medium with 10% heat-inactivated fetal bovine serum, 1X penicillin-streptomycin supplement, and 500 μg/ml G418 (neomycin) to maintain selection (all from ThermoFisher) at 37°C with 5% CO2 atmosphere. For the cAMP assay, cells were seeded at 20,000 cells/well in a 96 well plate, recovered overnight, then serum starved for 4 h. The cells were then incubated with 500 μM IBMX for 20 min, followed by agonist concentration curves in 500 μM IBMX media for 10 min. The reaction was terminated, boiled, then collected, followed by competition with 7 μg of bovine protein kinase A (Sigma-Aldrich) and ∼1 pmol of ^3H-cAMP (PerkinElmer). The assay was incubated at room temp for 1 h, then collected onto GF/B filter plates and the data read using a MicroBeta2 scintillation counter (PerkinElmer).

human PAC1 receptor = target: T3, human PAC1 receptor (Homo sapiens, UniProt P41586); assay: cAMP stimulation in CHO cells expressing PAC1; conditions: for Emax: CHO
T3 construct: expressed in transfected cells; host or cells: CHO cells (G418 selection)
T3 sequence (P41586 21-468): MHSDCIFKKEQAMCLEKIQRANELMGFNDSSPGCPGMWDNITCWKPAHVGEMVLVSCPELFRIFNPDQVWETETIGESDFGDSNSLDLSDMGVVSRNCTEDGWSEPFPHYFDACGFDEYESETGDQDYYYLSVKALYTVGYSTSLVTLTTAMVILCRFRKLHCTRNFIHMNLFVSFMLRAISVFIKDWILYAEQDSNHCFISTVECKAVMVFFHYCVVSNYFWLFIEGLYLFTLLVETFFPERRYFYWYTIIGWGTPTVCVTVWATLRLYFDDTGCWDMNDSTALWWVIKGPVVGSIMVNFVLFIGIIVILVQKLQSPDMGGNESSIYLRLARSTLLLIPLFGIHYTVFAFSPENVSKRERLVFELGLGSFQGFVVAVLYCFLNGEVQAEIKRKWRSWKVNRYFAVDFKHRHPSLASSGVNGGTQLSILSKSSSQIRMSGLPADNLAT
Procedure, shortened: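 Serum-starved CHO cells expressing human receptors were pre-treated 20 min with 500 μM IBMX, then exposed to agonist concentration curves for 10 min in 500 μM IBMX. cAMP quantified by competition with bovine PKA and ^3H-cAMP (1 h, room temperature), scintillation read.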

Emax (human VPAC1 receptor) [%] | EC50 (human VPAC2 receptor) [nM] | Emax (human VPAC2 receptor) [%] | EC50 (human PAC1 receptor) [nM] | Emax (human PAC1 receptor) [%] | Receptor selectivity ratio VPAC1/PAC1 (human VPAC1 receptor) | EC50 (human VPAC1 receptor) [nM] | Receptor selectivity ratio VPAC2/PAC1 (human VPAC2 receptor) | Receptor selectivity ratio VPAC2/VPAC1 (human VPAC2 receptor) | Selectivity for VPAC1 over PAC1 (human VPAC1 receptor; from cAMP EC50 values) [fold] | Structure (SMILES)
18 | > 2500 | 62 | 1640 | 58 |  |  |  |  |  | CCCC[C@@H](NC(=O)CNC(=O)[C@H](CC(=O)O)NC(=O)[C@@H](CO)NC(=O)[C@H](Cc1c[nH]cn1)NC(C)=O)C(=O)N[C@@H](Cc1ccccc1)C(=O)N[C@H](C(=O)N[C@@H](CC(=O)O)C(=O)N[C@@H](CO)C(=O)N[C@@H](Cc1ccc(O)cc1)C(=O)N[C@@H](CO)C(=O)N[C@@H](CCCNC(=N)N)C(=O)N[C@@H](Cc1ccc(O)cc1)C(=O)N[C@@H](CCCNC(=N)N)C(=O)N[C@@H](CCCCN)C(=O)N[C@@H](CCC(N)=O)C(=O)N[C@@H](CCC)C(=O)N[C@@H](C)C(=O)N[C@H](C(=O)N[C@@H](CCCCN)C(=O)N[C@@H](CCCCN)C(=O)N[C@@H](Cc1ccc(O)cc1)C(=O)N[C@@H](CC(C)C)C(=O)N[C@@H](C)C(=O)N[C@@H](C)C(=O)N[C@H](C(=O)N[C@@H](CC(C)C)C(=O)N[C@@H](CO[C@@H]1O[C@H](CO)[C@@H](O)[C@H](O)[C@H]1O)C(N)=O)C(C)C)C(C)C)[C@@H](C)O [Ac-CRA 3019]
104 |  | 112 |  | 85 |  |  |  |  |  | CCCC[C@H](NC(=O)CN(C)C(=O)[C@H](CC(=O)O)NC(=O)[C@@H](CO)NC(=O)[C@@H](N)Cc1c[nH]cn1)C(=O)N[C@@H](Cc1ccccc1)C(=O)N[C@H](C(=O)N[C@@H](CC(=O)O)C(=O)N[C@@H](CO)C(=O)N[C@@H](Cc1ccc(O)cc1)C(=O)N[C@@H](CO)C(=O)N[C@@H](CCCNC(=N)N)C(=O)N[C@@H](Cc1ccc(O)cc1)C(=O)N[C@@H](CCCNC(=N)N)C(=O)N[C@@H](CCCCN)C(=O)N[C@@H](CCC(N)=O)C(=O)N[C@@H](CCC)C(=O)N[C@@H](C)C(=O)N[C@H](C(=O)N[C@@H](CCCCN)C(=O)N[C@@H](CCCCN)C(=O)N[C@@H](Cc1ccc(O)cc1)C(=O)N[C@@H](CC(C)C)C(=O)N[C@@H](C)C(=O)N[C@@H](C)C(=O)N[C@H](C(=O)N[C@@H](CC(C)C)C(=O)N[C@@H](CO[C@@H]1O[C@H](CO)[C@@H](O)[C@H](O)[C@H]1O)C(N)=O)C(C)C)C(C)C)[C@@H](C)O [CRA3018]
93 | 55.6 | 91 | 0.84 | 92 | 0.62 | 0.52 | 66.19 | 106.92 |  | [2H]C([2H])([2H])C([2H])(C([2H])([2H])[2H])[C@]([2H])(NC(=O)[C@H](C)NC(=O)[C@H](C)NC(=O)[C@H](CC(C)C)NC(=O)[C@H](Cc1ccc(O)cc1)NC(=O)[C@H](CCCCN)NC(=O)[C@H](CCCCN)NC(=O)[C@@H](NC(=O)[C@H](C)NC(=O)[C@H](CC(C)C)NC(=O)[C@H](CCC(N)=O)NC(=O)[C@H](CCCCN)NC(=O)[C@H](CCCNC(=N)N)NC(=O)[C@H](Cc1ccc(O)cc1)NC(=O)[C@H](CCCNC(=N)N)NC(=O)[C@H](CO)NC(=O)[C@H](Cc1ccc(O)cc1)NC(=O)[C@H](CO)NC(=O)[C@H](CC(=O)O)NC(=O)[C@@H](NC(=O)[C@H](Cc1ccccc1)NC(=O)[C@@H](NC(=O)CNC(=O)[C@H](CC(=O)O)NC(=O)[C@H](CO)NC(=O)[C@@H](N)Cc1c[nH]cn1)[C@@H](C)CC)[C@@H](C)O)C(C)C)C(=O)N[C@@H](CC(C)C)C(=O)N[C@@H](CO[C@@H]1O[C@H](CO)[C@@H](O[C@@H]2O[C@H](CO)[C@@H](O)[C@H](O)[C@H]2O)[C@H](O)[C@H]1O)C(N)=O [Compound 2LS98Cell]
125 | > 2500 | 55 | 412 | 75 | 1.86 | 767 |  |  |  | CCC[C@H](NC(=O)[C@H](CCC(N)=O)NC(=O)[C@H](CCCCN)NC(=O)[C@H](CCCNC(=N)N)NC(=O)[C@H](Cc1ccc(O)cc1)NC(=O)[C@H](CCCNC(=N)N)NC(=O)[C@H](CO)NC(=O)[C@H](Cc1ccc(O)cc1)NC(=O)[C@H](CO)NC(=O)[C@H](CC(=O)O)NC(=O)[C@@H](NC(=O)[C@H](Cc1ccccc1)NC(=O)[C@@H](NC(=O)CCCCNC(=O)[C@H](CC(=O)O)NC(=O)[C@@H](CO)NC(=O)[C@@H](N)Cc1c[nH]cn1)[C@@H](C)CC)[C@@H](C)O)C(=O)N[C@@H](C)C(=O)N[C@H](C(=O)N[C@@H](CCCCN)C(=O)N[C@@H](CCCCN)C(=O)N[C@@H](Cc1ccc(O)cc1)C(=O)N[C@@H](CC(C)C)C(=O)N[C@@H](C)C(=O)N[C@@H](C)C(=O)N[C@H](C(=O)N[C@@H](CC(C)C)C(=O)N[C@@H](CO[C@@H]1O[C@H](CO)[C@@H](O)[C@H](O)[C@H]1O)C(N)=O)C(C)C)C(C)C [CRA 3009]
91 | 223 | 99 | 784 | 68 | 0.04 | 34.2 | 0.28 | 6.52 | ~23 | CCC[C@H](NC(=O)[C@H](CCC(N)=O)NC(=O)[C@H](CCCCN)NC(=O)[C@H](CCCNC(=N)N)NC(=O)[C@H](Cc1ccc(O)cc1)NC(=O)[C@H](CCCNC(=N)N)NC(=O)[C@H](CO)NC(=O)[C@H](Cc1ccc(O)cc1)NC(=O)[C@H](CO)NC(=O)[C@H](CC(=O)O)NC(=O)[C@@H](NC(=O)[C@H](Cc1ccccc1)NC(=O)[C@@H](NC(=O)C(C)(C)NC(=O)[C@H](CC(=O)O)NC(=O)[C@@H](CO)NC(=O)[C@@H](N)Cc1c[nH]cn1)[C@@H](C)CC)[C@@H](C)O)C(=O)N[C@@H](C)C(=O)N[C@H](C(=O)N[C@@H](CCCCN)C(=O)N[C@@H](CCCCN)C(=O)N[C@@H](Cc1ccc(O)cc1)C(=O)N[C@@H](CC(C)C)C(=O)N[C@@H](C)C(=O)N[C@@H](C)C(=O)N[C@H](C(=O)N[C@@H](CC(C)C)C(=O)N[C@@H](CO[C@@H]1O[C@H](CO)[C@@H](O)[C@H](O)[C@H]1O)C(N)=O)C(C)C)C(C)C [CRA3011]
108 | 156 | 106 | 2.23 | 102 | 1.37 | 3.06 | 69.96 | 50.98 |  | CC[C@H](C)[C@H](NC(=O)CNC(=O)[C@H](CC(=O)O)NC(=O)[C@H](CO)NC(=O)[C@@H](N)Cc1c[nH]cn1)C(=O)N[C@@H](Cc1ccccc1)C(=O)N[C@H](C(=O)N[C@@H](CC(=O)O)C(=O)N[C@@H](CO)C(=O)N[C@@H](Cc1ccc(O)cc1)C(=O)N[C@@H](CO)C(=O)N[C@@H](CCCNC(=N)N)C(=O)N[C@@H](Cc1ccc(O)cc1)C(=O)N[C@@H](CCCNC(=N)N)C(=O)N[C@@H](CCCCN)C(=O)N[C@@H](CCC(N)=O)C(=O)N[C@@H](CC(C)C)C(=O)N[C@@H](C)C(=O)N[C@H](C(=O)N[C@@H](CCCCN)C(=O)N[C@@H](CCCCN)C(=O)N[C@@H](Cc1ccc(O)cc1)C(=O)N[C@@H](CC(C)C)C(=O)N[C@@H](C)C(=O)N[C@@H](C)C(=O)N[C@H](C(=O)N[C@@H](CC(C)C)C(=O)N[C@@H](CO[C@@H]1O[C@H](CO)[C@@H](O)[C@H](O)[C@H]1O)C(=O)N[C@@H](CO[C@@H]1O[C@H](CO)[C@@H](O)[C@H](O)[C@H]1O)C(N)=O)C(C)C)C(C)C)[C@@H](C)O [Compound 2LS140]
